# Measurements reported in ChEMBL document CHEMBL3885881, “DrugMatrix”.
# Species: Rattus norvegicus
# Assay: DrugMatrix - Regimen: Daily Repeat
# Format: toxicity, organism-based, Sprague-Dawley
# Set-up: regimen Daily Repeat, gender Male, age 6-8 weeks
# Conditions: in vivo, po, route oral GAVAGE, […]; for ABSOLUTE BASOPHIL / ABSOLUTE EOSINOPHIL / ABSOLUTE LYMPHOCYTE / ABSOLUTE MONOCYTE / ABSOLUTE SEGMENTED NEUTROPHIL / BASOPHIL / EOSINOPHIL / ERYTHROCYTE COUNT / HEMATOCRIT / HEMOGLOBIN / LEUKOCYTE COUNT / LYMPHOCYTE / MEAN CORPUSCULAR HEMOGLOBIN / MEAN CORPUSCULAR HEMOGLOBIN CONCENTRATION / MEAN CORPUSCULAR VOLUME / MONOCYTE / NEUTROPHIL / NUCLEATED RED BLOOD CELLS / PLATELET COUNT: tissue Blood; for ALANINE AMINOTRANSFERASE / ALBUMIN / ALKALINE PHOSPHATASE / ASPARTATE AMINOTRANSFERASE / BLOOD UREA NITROGEN / CARBON DIOXIDE / CHLORIDE / CHOLESTEROL / CREATINE PHOSPHOKINASE / CREATININE / GLUCOSE / LACTATE DEHYDROGENASE / LIPASE / PHOSPHORUS / POTASSIUM / SODIUM / TOTAL BILIRUBIN / TOTAL PROTEIN / URIC ACID: tissue Plasma
# [1] = 0 mg/kg, 72 h, dose level Control, time 3 day
# [2] = 0 mg/kg, 120 h, dose level Control, time 5 day
# [3] = 100 mg/kg, 72 h, dose level Low, time 3 day
structure (smiles),measurement,setting,value
CC(=O)Nc1cccc(O)c1 [METACETAMOL],ABSOLUTE BASOPHIL,[1],0 CELLS/uL
same,ABSOLUTE EOSINOPHIL,[1],0 CELLS/uL
same,ABSOLUTE LYMPHOCYTE,[1],14687.67 CELLS/uL
same,ABSOLUTE MONOCYTE,[1],164 CELLS/uL
same,ABSOLUTE SEGMENTED NEUTROPHIL,[1],1748.33 CELLS/uL
same,BASOPHIL,[1],0%
same,EOSINOPHIL,[1],0%
same,ERYTHROCYTE COUNT,[1],5.51 x10E6/uL
same,HEMATOCRIT,[1],33.68%
same,HEMOGLOBIN,[1],13.4 G/DL
same,LEUKOCYTE COUNT,[1],16.6 x10E3/uL
same,LYMPHOCYTE,[1],88.83%
same,MEAN CORPUSCULAR HEMOGLOBIN,[1],24.47 pg
same,MEAN CORPUSCULAR HEMOGLOBIN CONCENTRATION,[1],39.82 G/DL
same,MEAN CORPUSCULAR VOLUME,[1],61.23 fL
same,MONOCYTE,[1],0.83%
same,NEUTROPHIL,[1],10.33%
same,NUCLEATED RED BLOOD CELLS,[1],0 /100WBC
same,PLATELET COUNT,[1],1329.67 x10E3/uL
same,ALANINE AMINOTRANSFERASE,[1],61.33 u/L
same,ALBUMIN,[1],4.18 G/DL
same,ALKALINE PHOSPHATASE,[1],332.5 u/L
same,ASPARTATE AMINOTRANSFERASE,[1],98.33 u/L
same,BLOOD UREA NITROGEN,[1],15.83 mg/dL
same,CARBON DIOXIDE,[1],27.83 mmol/L
same,CHLORIDE,[1],100 MEQ/L
same,CHOLESTEROL,[1],76.17 mg/dL
same,CREATINE PHOSPHOKINASE,[1],729.17 u/L
same,CREATININE,[1],0.21 mg/dL
same,GLUCOSE,[1],151.83 mg/dL
same,LACTATE DEHYDROGENASE,[1],484.67 u/L
same,LIPASE,[1],10 u/L
same,PHOSPHORUS,[1],11.3 mg/dL
same,POTASSIUM,[1],6.1 MEQ/L
same,SODIUM,[1],142.9 MEQ/L
same,TOTAL BILIRUBIN,[1],0.23 mg/dL
same,TOTAL PROTEIN,[1],5.68 G/DL
same,URIC ACID,[1],1.75 mg/dL
same,ABSOLUTE BASOPHIL,[2],0 CELLS/uL
same,ABSOLUTE EOSINOPHIL,[2],58.67 CELLS/uL
same,ABSOLUTE LYMPHOCYTE,[2],15950.83 CELLS/uL
same,ABSOLUTE MONOCYTE,[2],172.5 CELLS/uL
same,ABSOLUTE SEGMENTED NEUTROPHIL,[2],2551.33 CELLS/uL
same,BASOPHIL,[2],0%
same,EOSINOPHIL,[2],0.33%
same,ERYTHROCYTE COUNT,[2],5.5 x10E6/uL
same,HEMATOCRIT,[2],34.05%
same,HEMOGLOBIN,[2],13.42 G/DL
same,LEUKOCYTE COUNT,[2],18.73 x10E3/uL
same,LYMPHOCYTE,[2],84.5%
same,MEAN CORPUSCULAR HEMOGLOBIN,[2],24.42 pg
same,MEAN CORPUSCULAR HEMOGLOBIN CONCENTRATION,[2],39.42 G/DL
same,MEAN CORPUSCULAR VOLUME,[2],61.97 fL
same,MONOCYTE,[2],1%
same,NEUTROPHIL,[2],14.17%
same,NUCLEATED RED BLOOD CELLS,[2],0.33 /100WBC
same,PLATELET COUNT,[2],1143.17 x10E3/uL
same,ALANINE AMINOTRANSFERASE,[2],57 u/L
same,ALBUMIN,[2],4.17 G/DL
same,ALKALINE PHOSPHATASE,[2],347.33 u/L
same,ASPARTATE AMINOTRANSFERASE,[2],93.67 u/L
same,BLOOD UREA NITROGEN,[2],15.67 mg/dL
same,CARBON DIOXIDE,[2],27.17 mmol/L
same,CHLORIDE,[2],104.33 MEQ/L
same,CHOLESTEROL,[2],69.5 mg/dL
same,CREATINE PHOSPHOKINASE,[2],317.17 u/L
same,CREATININE,[2],0.2 mg/dL
same,GLUCOSE,[2],162.33 mg/dL
same,LACTATE DEHYDROGENASE,[2],408.67 u/L
same,LIPASE,[2],10.17 u/L
same,PHOSPHORUS,[2],11.08 mg/dL
same,POTASSIUM,[2],6.36 MEQ/L
same,SODIUM,[2],146.07 MEQ/L
same,TOTAL BILIRUBIN,[2],0.22 mg/dL
same,TOTAL PROTEIN,[2],5.92 G/DL
same,URIC ACID,[2],1.47 mg/dL
same,ABSOLUTE BASOPHIL,[3],0 CELLS/uL
same,ABSOLUTE EOSINOPHIL,[3],56.67 CELLS/uL
same,ABSOLUTE LYMPHOCYTE,[3],16234.67 CELLS/uL
same,ABSOLUTE MONOCYTE,[3],197 CELLS/uL
same,ABSOLUTE SEGMENTED NEUTROPHIL,[3],1911.67 CELLS/uL
same,BASOPHIL,[3],0%
same,EOSINOPHIL,[3],0.33%
same,ERYTHROCYTE COUNT,[3],5.37 x10E6/uL
same,HEMATOCRIT,[3],33.67%
same,HEMOGLOBIN,[3],13.43 G/DL
same,LEUKOCYTE COUNT,[3],18.4 x10E3/uL
same,LYMPHOCYTE,[3],88.33%
same,MEAN CORPUSCULAR HEMOGLOBIN,[3],25 pg
same,MEAN CORPUSCULAR HEMOGLOBIN CONCENTRATION,[3],39.93 G/DL
same,MEAN CORPUSCULAR VOLUME,[3],62.73 fL
same,MONOCYTE,[3],1%
same,NEUTROPHIL,[3],10.33%
same,NUCLEATED RED BLOOD CELLS,[3],0 /100WBC
same,PLATELET COUNT,[3],1217 x10E3/uL
same,ALANINE AMINOTRANSFERASE,[3],68.67 u/L
same,ALBUMIN,[3],4.23 G/DL
same,ALKALINE PHOSPHATASE,[3],369.67 u/L
same,ASPARTATE AMINOTRANSFERASE,[3],101.67 u/L
same,BLOOD UREA NITROGEN,[3],14.67 mg/dL
same,CARBON DIOXIDE,[3],31 mmol/L
same,CHLORIDE,[3],100.67 MEQ/L
same,CHOLESTEROL,[3],76.33 mg/dL
same,CREATINE PHOSPHOKINASE,[3],371.33 u/L
same,CREATININE,[3],0.22 mg/dL
same,GLUCOSE,[3],142.67 mg/dL
same,LACTATE DEHYDROGENASE,[3],561.67 u/L
same,LIPASE,[3],10.33 u/L
same,PHOSPHORUS,[3],11.3 mg/dL
same,POTASSIUM,[3],6.59 MEQ/L
same,SODIUM,[3],143.83 MEQ/L
same,TOTAL BILIRUBIN,[3],0.23 mg/dL
same,TOTAL PROTEIN,[3],5.8 G/DL
same,URIC ACID,[3],1.7 mg/dL
